From a melting point compilation (Tetko et al.; mined from patent text by program, amines drawn as free bases though some values may be those of a salt)

SMILES	melting point [°C]
COCOc1ccccc1-c1cc(-c2cccc(C(=O)O)c2)c(C#N)c(NC(=O)c2cccs2)n1	179 to 180
Cc1cccc(-c2n[nH]cc2-c2ccc(F)c(-c3ccc(S(=O)(=O)C(F)F)cc3)c2)n1	80 to 82
COC(=O)c1cncn1C1c2ccccc2C2OC2C1(C)C (stereo unspecified)	60 to 68
Cc1cc(Br)cnc1CCCCNC1=NS(=O)(=O)c2ccccc21	232 to 244
CC1=C(C(=O)OC(C)C)C(c2cccc([N+](=O)[O-])c2)C(C(=O)C(C)S(=O)(=O)NC(C)C)=C(C)N1 (stereo unspecified)	117 to 120
Cc1cc(OCC(=O)O)c2sc3ccccc3c(=O)c2c1C	226 to 229
O=C(O)C1(c2ccc(Cl)cc2)OCC2(CO1)c1ccccc1Oc1ccccc12	244 to 246
Cc1ccc(CNc2ccc3c(CNC(=O)c4ccc(F)cc4)cccc3n2)o1	173
CC1(C)CCc2c(-c3ccoc3)nc3sc4c(NCCCN5CCCC5=O)ncnc4c3c2C1	194 to 195
CC[C@H](C)[C@H](N)C(=O)N[C@@H](Cc1ccc(OC(C)(C)C)cc1)C(=O)N[C@@H](C)C(=O)NCc1c(OC)ccc2c1Oc1c(ccc(OC)c1CC(=O)O)C2(C)C	146 to 149
Nc1ccn2c(=O)c(C(=O)O)ccc2c1	> 250
CNc1nc(-c2cccc(NC(=O)c3ccncc3)c2)c2cc(OC)c(OC)cc2n1	228 to 230
COc1nccc2oc(S(N)(=O)=O)cc12	180 to 182
O=[N+]([O-])c1cccc2cc(-c3ncns3)[nH]c12	186 to 187
OC1(C#Cc2cccc(Cl)c2)CCCNC1 (stereo unspecified)	113 to 114
CCCn1nc(C(C)C)c(C(=O)O)c1Cc1ccc(-c2ccccc2-c2nnn(C(c3ccccc3)(c3ccccc3)c3ccccc3)n2)cc1	136 to 139
CCCN1CC(c2ccc(S(C)(=O)=O)cc2)=C(c2ccc(Cl)cc2)C1=O	146 to 148
COc1ccc2c(ccn3c(=O)c(C(=O)O)cnc23)c1	302 to 304

SMILES	melting point [°C]
CS(=O)(=O)N(c1nc(CN2CCN(C(c3ccccc3)c3ccccc3)CC2)cs1)S(C)(=O)=O	167 to 168
O=C(c1cc(-c2ccccc2)c(=O)n2c1-c1ccccc1CN2)N1CCOCC1	254 to 257
Cc1nn(C)cc1C(=O)Nc1cc(Oc2ccc3nc(NC(=O)C4CC4)cn3n2)ccc1F	205
CCCCCCCCCCCCc1ccc(S(=O)(=O)Nc2nnc(C)s2)cc1	149 to 150
CCCCCCCCNc1ccc(NCCCCCCCC)c2c1C(=O)c1ccccc1C2=O	72 to 74
CCNC(=O)CC1CN=C(c2cc3cc(Oc4ccc(S(C)(=O)=O)nc4)ccc3[nH]2)S1 (stereo unspecified)	216 to 217
ClCCCc1ccc(OCc2ccccc2)cc1	34 to 35
Cc1nn(-c2ccccc2)c(-c2ccc(Cl)cc2)c1CC(=O)O	174 to 177
CCOC(=O)c1cnoc1-c1ccc(Cl)c(F)c1	76 to 77
CN1C(c2nnc(C3CCCCC3)o2)=C(OC(=O)c2ccccc2)c2ccccc2S1(=O)=O	157
N#CC(=NOS(=O)(=O)c1ccc(C(=O)Cl)cc1)c1ccccc1	193 to 195
Cc1cccc([N+](=O)[O-])c1C#N	101 to 103
Cc1cc(OC/C=C/c2ccc(F)cc2)c(C)c(C)c1NC=O	196 to 198
CCOC(=O)Cc1ccc(NC(=O)C(CO)NS(=O)(=O)c2ccc(Br)cc2)cc1 (racemic)	149 to 150
CCN(CC)CCCn1ccc2cc(Nc3ncnc4cc(-c5ccccc5)sc34)ccc21	178 to 180
CCC(CC)c1nn(-c2ncc(C(F)(F)F)cn2)cc1CCCOc1c(C)cccc1CC(=O)O	110 to 111
CN1CC(CCCO)CC2(OCCO)c3cccc4[nH]cc(c34)CC12 (stereo unspecified)	212 to 215
CN(Cc1cccc(-c2ccc(CC3SC(=O)NC3=O)cc2)c1)C(=O)c1ccc(O)cc1 (stereo unspecified)	110
